# Experimental data: patent US20210038587A1, “METHODS AND COMPOSITIONS FOR TREATING NON-ERK MAPK PATHWAY INHIBITOR-RESISTANT CANCERS” (BIOMED VALLEY DISCOVERIES, INC., priority 2013, published 2021)
# What was measured:
# MIAPaCa-2 = test: Reverse Phase Protein Analysis (RPPA); format: cell-based; settings: MIAPaca2; % change from DMSO (matched cell line)
# Experimental: (§4) Control wells were treated with DMSO at 0.1% (v/v) for 6 hours prior to cell lysate generation. Samples were then analyzed using reverse-phase protein microarray technology (Theranostics Health).
# (§5) Cell lines with common alterations in BRAF and RAS were assayed: BRAF^V600E mutant lines A375, Colo205, and HT29; KRAS^G12C-mutant cell line MIAPACa-2; KRAS^G13D-mutant cell line HCT116; and AN3Ca with atypical HRAS^F82L mutation.
# Colo205 = test: Reverse Phase Protein Analysis (RPPA); format: cell-based, human; settings: % change from DMSO (matched cell line)
# Experimental: as §4, §5
# [1] = test system: RKO MEK1 (Q56P/+) Clone 1; test: Single agent proliferation assay (CellTiter-Glo, 96 h); format: cell-based; settings: RKO MEK1 Q56P/+ Cl.1
# Experimental: (§1) For assessment of drug sensitivity in cell-line models of acquired resistance, drug sensitivity of dose-escalated A375 cells and isogenic RKO cells was assessed in 96-hour proliferation assays. […] For the A375 assays Alamar blue (ThermoFisher) 10% (v/v) was added and incubated for 4 h, and fluorescent product was then detected using a BMG FLUOstar.
# (§2) RKO MEK1 Q56P Isogenic cells were produced by Horizon Discovery (Cambridge, UK; #HD 106-019) using a recombinant AAV-mediated gene targeting strategy. Briefly, rAAV virus was generated following transfection of the appropriate targeting vector and helper vectors in HEK293T cells, purified using an AAV purification kit (Virapur, San Diego, USA) and titrated using qPCR. Parental homozygous RKO cells (homozygous wild type for MEK1) were then infected with rAAV virus and clones that had integrated the selection cassette were identified by G418 selection and expanded. Correctly targeted clones that were heterozygous for knock-in of the MEK1 Q56P point mutation into a single allele were identified by PCR and sequencing.
# (§3) Compounds were prepared from DMSO stocks to give the desired final concentrations. The final DMSO concentration was constant at 0.1%. […] CellTiter-Glo® reagent (Promega, Madison, Wis.) was added according to manufacturer's instructions and luminescence detected using the BMG FLUOstar plate reader (BMG Labtech, Ortenberg, Germany).
# [2] = test system: RKO MEK1 (Q56P/+) Clone 2; test: as above; format: cell-based; settings: RKO MEK1 Q56P/+ Cl.2
# Experimental: as §1, §2, §3
# RKO Parental = test: as above; format: cell-based
# Experimental: as §1, §3
smiles,measurement,setting,value
Cc1cnc(Nc2ccc(F)cc2Cl)nc1-c1c[nH]c(C(=O)N[C@H](CO)c2cccc(Cl)c2)c1 [Vx-11e],Avg (4ebp1 T70),MIAPaCa-2,−15.72%
same,Avg (Akt S473),MIAPaCa-2,0.48%
same,Avg (Akt),MIAPaCa-2,−0.15%
same,Avg (Bad S136),MIAPaCa-2,0.36%
same,Avg (Bad S155),MIAPaCa-2,7.38%
same,Avg (Bak),MIAPaCa-2,−1.93%
same,Avg (Bax),MIAPaCa-2,4.33%
same,Avg (Bcl 2),MIAPaCa-2,−2.3%
same,Avg (Bcl2 S70),MIAPaCa-2,−7.83%
same,Avg (Bcl 2 T56),MIAPaCa-2,−9.86%
same,Avg (Bim),MIAPaCa-2,2.1%
same,Avg (CREB S133),MIAPaCa-2,−13.28%
same,Avg (Caspase 3 CL D175),MIAPaCa-2,6.17%
same,Avg (Caspase 7 Cl D198),MIAPaCa-2,−0.32%
same,Avg (Chk1),MIAPaCa-2,−1.8%
same,Avg (Chk1 S345),MIAPaCa-2,2.09%
same,Avg (Cyclin D1),MIAPaCa-2,−33.96%
same,Avg (ERK 1 2),MIAPaCa-2,−14.85%
same,Avg (ERK 1 2 T202 Y204),MIAPaCa-2,729.27%
same,Avg (MAK1 S360),MIAPaCa-2,−0.87%
same,Avg (Mcl1),MIAPaCa-2,−6.58%
same,Avg (Raptor S792),MIAPaCa-2,−3.74%
same,Avg (Raptor),MIAPaCa-2,5.4%
same,Avg (Rictor),MIAPaCa-2,−13.24%
same,Avg (Stat1),MIAPaCa-2,−1.64%
same,Avg (Stat3),MIAPaCa-2,0.61%
same,Avg (bad S112),MIAPaCa-2,−20.85%
same,Avg (c Fos),MIAPaCa-2,−4.43%
same,Avg (c Myc),MIAPaCa-2,−5.94%
same,Avg (mTOR S2448),MIAPaCa-2,−5.38%
same,Avg (mTOR S2481),MIAPaCa-2,−3.12%
same,Avg (mTOR),MIAPaCa-2,−1.58%
same,Avg (p70 S6 Kinase),MIAPaCa-2,−9.27%
same,Avg (p90 RSK S380),MIAPaCa-2,−39.91%
same,Avg(S6 Ribo Prot S235 236),MIAPaCa-2,−63.36%
same,Avg(S6 Ribo Prot S240 244),MIAPaCa-2,−74.82%
same,Avg(Tuberin TSC2 Y1571),MIAPaCa-2,−0.01%
same,Avg(p70 S6 Kinase S371 S394),MIAPaCa-2,−30.35%
same,Avg(p70 S6 Kinase T389 T412),MIAPaCa-2,−30.66%
same,Avg (4ebp1 T70),Colo205,−43.71%
same,Avg (Akt S473),Colo205,−10.96%
same,Avg (Akt),Colo205,−12.51%
same,Avg (Bad S136),Colo205,−1.01%
same,Avg (Bad S155),Colo205,−9.72%
same,Avg (Bak),Colo205,−2.79%
same,Avg (Bax),Colo205,−9.16%
same,Avg (Bcl 2),Colo205,−14.09%
same,Avg (Bcl2 S70),Colo205,−20.82%
same,Avg (Bcl 2 T56),Colo205,−12.02%
same,Avg (Bim),Colo205,34.1%
same,Avg (CREB S133),Colo205,−10.64%
same,Avg (Caspase 3 CL D175),Colo205,−2.67%
same,Avg (Caspase 7 Cl D198),Colo205,0.03%
same,Avg (Chk1),Colo205,−9.16%
same,Avg (Chk1 S345),Colo205,13.12%
same,Avg (Cyclin D1),Colo205,−39.79%
same,Avg (ERK 1 2),Colo205,−12.32%
same,Avg (ERK 1 2 T202 Y204),Colo205,98.48%
same,Avg (MAK1 S360),Colo205,6.22%
same,Avg (Mcl1),Colo205,−10.64%
same,Avg (Raptor S792),Colo205,0.2%
same,Avg (Raptor),Colo205,−0.05%
same,Avg (Rictor),Colo205,1.65%
same,Avg (Stat1),Colo205,−6.1%
same,Avg (Stat3),Colo205,−7.96%
same,Avg (bad S112),Colo205,−30.28%
same,Avg (c Fos),Colo205,−19.34%
same,Avg (c Myc),Colo205,−7.42%
same,Avg (mTOR S2448),Colo205,−8.52%
same,Avg (mTOR S2481),Colo205,−9.43%
same,Avg (mTOR),Colo205,3.62%
same,Avg (p70 S6 Kinase),Colo205,−3.42%
same,Avg (p90 RSK S380),Colo205,−58.6%
same,Avg(S6 Ribo Prot S235 236),Colo205,−93.04%
same,Avg(S6 Ribo Prot S240 244),Colo205,−94.89%
same,Avg(Tuberin TSC2 Y1571),Colo205,−9.45%
same,Avg(p70 S6 Kinase S371 S394),Colo205,−13.64%
same,Avg(p70 S6 Kinase T389 T412),Colo205,−28%
O=C(Nc1ccc2[nH]nc(-c3ccncc3)c2c1)[C@@H]1CCN(CC(=O)N2CCN(c3ccc(-c4ncccn4)cc3)CC2)C1 [SCH772984],IC50,[1],140 nM
same,IC50,[2],120 nM
same,IC50,RKO Parental,40 nM
same,Avg (4ebp1 T70),MIAPaCa-2,19.27%
same,Avg (Akt S473),MIAPaCa-2,2.84%
same,Avg (Akt),MIAPaCa-2,13.47%
same,Avg (Bad S136),MIAPaCa-2,8.62%
same,Avg (Bad S155),MIAPaCa-2,−1.71%
same,Avg (Bak),MIAPaCa-2,−10.88%
same,Avg (Bax),MIAPaCa-2,15.67%
same,Avg (Bcl 2),MIAPaCa-2,4.96%
same,Avg (Bcl2 S70),MIAPaCa-2,−4.23%
same,Avg (Bcl 2 T56),MIAPaCa-2,−1.98%
same,Avg (Bim),MIAPaCa-2,2.08%
same,Avg (CREB S133),MIAPaCa-2,−6.63%
same,Avg (Caspase 3 CL D175),MIAPaCa-2,21.05%
same,Avg (Caspase 7 Cl D198),MIAPaCa-2,8.35%
same,Avg (Chk1),MIAPaCa-2,12.07%
same,Avg (Chk1 S345),MIAPaCa-2,13.39%
same,Avg (Cyclin D1),MIAPaCa-2,−39.88%
same,Avg (ERK 1 2),MIAPaCa-2,−23.09%
same,Avg (ERK 1 2 T202 Y204),MIAPaCa-2,−76.71%
same,Avg (MAK1 S360),MIAPaCa-2,2.74%
same,Avg (Mcl1),MIAPaCa-2,−1.88%
same,Avg (Raptor S792),MIAPaCa-2,4.43%
same,Avg (Raptor),MIAPaCa-2,17.66%
same,Avg (Rictor),MIAPaCa-2,−15.15%
same,Avg (Stat1),MIAPaCa-2,7.17%
same,Avg (Stat3),MIAPaCa-2,−9.19%
same,Avg (bad S112),MIAPaCa-2,−33.07%
same,Avg (c Fos),MIAPaCa-2,−8.99%
same,Avg (c Myc),MIAPaCa-2,2.11%
same,Avg (mTOR S2448),MIAPaCa-2,−11.48%
same,Avg (mTOR S2481),MIAPaCa-2,2.43%
same,Avg (mTOR),MIAPaCa-2,1.64%
same,Avg (p70 S6 Kinase),MIAPaCa-2,−7.51%
same,Avg (p90 RSK S380),MIAPaCa-2,−38.58%
same,Avg(S6 Ribo Prot S235 236),MIAPaCa-2,−77.57%
same,Avg(S6 Ribo Prot S240 244),MIAPaCa-2,−86.61%
same,Avg(Tuberin TSC2 Y1571),MIAPaCa-2,8.86%
same,Avg(p70 S6 Kinase S371 S394),MIAPaCa-2,−40.47%
same,Avg(p70 S6 Kinase T389 T412),MIAPaCa-2,−50.97%
same,Avg (4ebp1 T70),Colo205,−27.51%
same,Avg (Akt S473),Colo205,−1.74%
same,Avg (Akt),Colo205,−10.31%
same,Avg (Bad S136),Colo205,1.88%
same,Avg (Bad S155),Colo205,−10.96%
same,Avg (Bak),Colo205,4.59%
same,Avg (Bax),Colo205,−6.44%
same,Avg (Bcl 2),Colo205,−14.56%
same,Avg (Bcl2 S70),Colo205,−18.52%
same,Avg (Bcl 2 T56),Colo205,−6.73%
same,Avg (Bim),Colo205,29.22%
same,Avg (CREB S133),Colo205,−14.56%
same,Avg (Caspase 3 CL D175),Colo205,14.08%
same,Avg (Caspase 7 Cl D198),Colo205,12.36%
same,Avg (Chk1),Colo205,7.49%
same,Avg (Chk1 S345),Colo205,1%
same,Avg (Cyclin D1),Colo205,−36.7%
same,Avg (ERK 1 2),Colo205,−31.87%
same,Avg (ERK 1 2 T202 Y204),Colo205,−91.43%
same,Avg (MAK1 S360),Colo205,7.54%
same,Avg (Mcl1),Colo205,−0.14%
same,Avg (Raptor S792),Colo205,−4.17%
same,Avg (Raptor),Colo205,−2.2%
same,Avg (Rictor),Colo205,−19.07%
same,Avg (Stat1),Colo205,−4.31%
same,Avg (Stat3),Colo205,−6.1%
same,Avg (bad S112),Colo205,−29.4%
same,Avg (c Fos),Colo205,−15.17%
same,Avg (c Myc),Colo205,−0.64%
same,Avg (mTOR S2448),Colo205,−9.44%
same,Avg (mTOR S2481),Colo205,−6.68%
same,Avg (mTOR),Colo205,−5.62%
same,Avg (p70 S6 Kinase),Colo205,−2.85%
same,Avg (p90 RSK S380),Colo205,−62.31%
same,Avg(S6 Ribo Prot S235 236),Colo205,−94.67%
same,Avg(S6 Ribo Prot S240 244),Colo205,−95.09%
same,Avg(Tuberin TSC2 Y1571),Colo205,−1.38%
same,Avg(p70 S6 Kinase S371 S394),Colo205,−14.59%
same,Avg(p70 S6 Kinase T389 T412),Colo205,−30.4%
